In patent US20240316051A1, “A PHARMACEUTICAL COMBINATION AND USE THEREOF” (Ascentage Pharma (Suzhou) Co., Ltd., priority 2021, published 2024):

Biological target: T1, EED (1-441)-His protein (Homo sapiens, UniProt O75530)
T1 construct: 20 nM EED (1-441)-His protein
Test: EED-H3K27Me3 peptide competition binding assay by AlphaScreen
Details: IC50 class, Table 4B, read-out: Alpha screen
Procedure: EED-H3K27Me3 Peptide Competition Binding Assay by AlphaScreen (α-Screen):
The compounds at each concentration (2.5 μl of each) were transferred into a 384-well Perkin Elmer OptiPlate-384 white plates. 5 μl of solutions containing 20 nM EED (1-441)-His protein in the buffer (25 mM HEPES, pH 8, 0.02% Tween-20, 0.5% BSA) were added to the wells and then incubated with compound for 15 min. 2.5 μl of solutions containing 20 nM biotin-H3K27Me3 (19-33) peptide in the buffer (25 mM HEPES, pH 8, 0.02% Tween-20, 0.5% BSA) were added to the wells and then incubated with compound for 30 min. AlphaScreen detection beads mix was prepared immediately before use by mixing nickel chelate acceptor beads and streptavidin donor beads in a 1:1 ratio (Perkin Elmer, Product No. 6760619C/M/R) into the buffer described above. Then 10 μl of the detection beads mix was added to the plate and incubated in the dark at RT for 1 h. The final concentration of donor and acceptor beads was 10 μg/ml for each. Plates were read on CLARIOStar plate reader (BMG Labtech) using the AlphaScreen setting adapted for optimal signal detection with a 615 nm filter, after sample excitation at 680 nm. The emission signal at 615 nm was used to quantify compound inhibition. AlphaScreen signals were normalized based on the reading coming from the positive (maximum signal control) and negative controls (minimum signal control) to give percentage of activities left. The data were then fit to a dose response equation to get the IC50 values.

T1 sequence (O75530 whole entry): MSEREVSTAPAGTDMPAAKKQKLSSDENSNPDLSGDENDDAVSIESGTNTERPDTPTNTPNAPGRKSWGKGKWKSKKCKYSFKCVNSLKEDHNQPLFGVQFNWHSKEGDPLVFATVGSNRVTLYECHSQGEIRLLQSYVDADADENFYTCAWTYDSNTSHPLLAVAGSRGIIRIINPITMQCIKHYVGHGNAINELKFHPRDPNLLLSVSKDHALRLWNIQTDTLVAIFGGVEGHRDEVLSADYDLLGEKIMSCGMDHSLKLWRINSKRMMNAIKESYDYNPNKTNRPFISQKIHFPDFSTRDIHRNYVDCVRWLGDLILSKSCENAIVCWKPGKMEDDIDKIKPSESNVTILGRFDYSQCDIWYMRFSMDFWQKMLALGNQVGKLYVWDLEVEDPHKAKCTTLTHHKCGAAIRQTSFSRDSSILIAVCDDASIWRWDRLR

Q: With `O=C1c2ncn3c(NCc4c(F)ccc5c4CCO5)ncc(c23)-c2ccc(C3CC3)nc2CN1CC(F)(F)F` [E 14, 7-cyclopropyl-12-(((5-fluoro-2,3-dihydrobenzo-furan-4-yl)methyl)amino)-4-(2,2,2-trifluoroethyl)-4,5-dihydro-3H-2,4,6,11,12a-pentaazabenzo[4,5] cycloocta[1,2,3-cd]inden-3-one] as the molecule, how does the IC50 read?
A: < 10 nM

Q: With `O=C1c2ncn3c(NCc4c(F)ccc5c4CCO5)ncc(c23)-c2ccc(C3CCC3)nc2CN1CC(F)(F)F` [E 52, 7-cyclobutyl-12-(((5-fluoro-2,3-dihydrobenzofuran-4-yl)methyl)amino)-4-(2,2,2-trifluoroethyl)-4,5-dihydro-3H-2,4,6,11,12a-pentaazabenzo[4,5] cycloocta[1,2,3-cd]inden-3-one] as the molecule, how does the IC50 read?
A: < 10 nM

Q: With `Cc1ccc2c(n1)Cc1conc1-c1ncn3c(NCc4c(F)ccc5c4CCO5)ncc-2c13` [E 36, N-((5-fluoro-2,3-dihydrobenzofuran-4-yl)methyl)-8-methyl-6H-4-oxa-2,3,7,12,13a-pentaazabenzo [4,5]cyclopenta[7,8]cycloocta[1,2,3-cd]inden-13-amine] as the molecule, how does the IC50 read?
A: 10 to 100 nM

Q: How did the IC50 turn out when `Cc1ccc2c(n1)CN(CC(F)F)C(=O)c1ncn3c(NCc4c(F)ccc5c4CCO5)ncc-2c13` [E 6, 4-(2,2-difluoroethyl)-12-(((5-fluoro-2,3-dihydro-benzofuran-4-yl)methyl)amino)-7-methyl-4,5-dihydro-3H-2,4,6,11,12a-pentaazabenzo[4,5] cycloocta[1,2,3-cd]inden-3-one] was run?
A: < 10 nM

Q: Which IC50 does the source give for `O=C1c2ncn3c(NCc4c(F)ccc5c4CCO5)ncc(c23)-c2ccc(C3COCCO3)nc2CN1CC(F)(F)F` (stereo not drawn) [E 48, 7-(1,4-dioxan-2-yl)-12-(((5-fluoro-2,3-dihydrobenzo-furan-4-yl)methyl)amino)-4-(2,2,2-trifluoroethyl)-4,5-dihydro-3H-2,4,6, 11,12a-pentaazabenzo[4,5] cycloocta[1,2,3-cd]inden-3-one] here?
A: < 10 nM

Q: How did the IC50 turn out when `Cc1ccc2c(n1)CCNC(=O)c1ncn3c(NCc4c(F)ccc5c4CCO5)ncc-2c13` [E 29, 13-(((5-fluoro-2,3-dihydrobenzofuran-4-yl)methyl)amino)-8-methyl-5,6-dihydro-2,4,7,12,13a-pentaazabenzo[4,5]cyclonona[1,2,3-cd]inden-3(4H)-one] was run?
A: 10 to 100 nM

Q: With `CC(C)(C)c1cc2c(cn1)-c1cnc(NCc3c(F)ccc4c3CCO4)n3cnc(c13)C(=O)N(CC(F)(F)F)C2` [E 46, 7-(tert-butyl)-12-(((5-fluoro-2,3-dihydrobenzofuran-4-yl)methyl)amino)-4-(2,2,2-trifluoroethyl)-4,5-dihydro-3H-2,4,8,11,12a-pentaazabenzo[4,5]cyclo octa[1,2,3-cd]inden-3-one] as the molecule, how does the IC50 read?
A: < 10 nM

Q: How did the IC50 turn out when `Cc1cnc2n1Cc1ncccc1-c1cnc(NCc3c(F)ccc4c3CCO4)n3cnc-2c13` [E 17, N-((5-fluoro-2,3-dihydrobenzofuran-4-yl)methyl)-5-methyl-6H-2,3,5a,7,12,13a-hexaazabenzo[4,5] cyclopenta[7,8]cycloocta[1,2,3-cd]inden-13-amine] was run?
A: < 10 nM

Q: Which IC50 does the source give for `CC(C)c1ccc2c(n1)CN(CC(F)F)C(=O)c1ncn3c(NCc4c(F)ccc5c4CCO5)ncc-2c13` [E 47, 4-(2,2-difluoroethyl)-12-(((5-fluoro-2,3-dihydrobenzofuran-4-yl)methyl)amino)-7-isopropyl-4,5-dihydro-3H-2,4,6,11,12a-pentaazabenzo[4,5]cycloocta[1,2,3-cd]inden-3-one] here?
A: < 10 nM

Q: For `CC(C)N1Cc2cc(C(F)F)ncc2-c2cnc(NCc3c(F)ccc4c3CCO4)n3cnc(c23)C1=O` [E 11, 7-(difluoromethyl)-12-(((5-fluoro-2,3-dihydro-benzofuran-4-yl)methyl)amino)-4-isopropyl-4,5-dihydro-3H-2,4,8,11,12a-pentaazabenzo[4,5] cycloocta[1,2,3-cd]inden-3-one], which IC50 is on record?
A: < 10 nM

Same assay, conditions: Table 4A, read-out: Alpha screen

Q: How did the IC50 turn out when `O=C1c2ncn3c(NCc4c(F)ccc5c4CCO5)ncc(c23)-c2ccc(C(F)(F)F)cc2CN1CC(F)(F)F` [Compound 83, 12-(((5-fluoro-2,3-dihydrobenzofuran-4-yl)methyl)amino)-4-(2,2,2-trifluoroethyl)-7-(trifluoromethyl)-4,5-dihydro-3H-2,4,11,12a-tetraazabenzo[4,5] cycloocta[1,2,3-cd]inden-3-one] was run?
A: 9.95 nM

Q: With `Cc1nn(C)c2c1-c1cnc(NCc3c(F)ccc4c3CCO4)n3cnc(c13)C(=O)N(C1CC1)C2` [Compound 56, 4-cyclopropyl-11-(((5-fluoro-2,3-dihydrobenzo-furan-4-yl)methyl)amino)-6,8-dimethyl-5,6-dihydro-2,4,6,7,10,11a-hexaazacyclopenta[4,5]cycloocta [1,2,3-cd]inden-3(4H)-one] as the molecule, how does the IC50 read?
A: 4.49 nM

Q: For `O=C1OCc2cnc(C(F)(F)F)cc2-c2cnc(NCc3c(F)ccc4c3CCO4)n3cnc1c23` [Compound 32, 12-(((5-fluoro-2,3-dihydrobenzofuran-4-yl)methyl)amino)-8-(trifluoromethyl)-3H,5H-4-oxa-2,7,11, 12a-tetraazabenzo[4,5]cycloocta[1,2,3-cd]inden-3-one], which IC50 is on record?
A: 1.84 nM

Q: Which IC50 does the source give for `O=C1c2ncn3c(NCc4c(F)ccc5c4CCO5)ncc(c23)-c2ccc(C(F)(F)F)cc2CN1CC1COCCO1` (stereo not drawn) [Compound 68, 4-((1,4-dioxan-2-yl)methyl)-12-(((5-fluoro-2,3-dihydrobenzofuran-4-yl)methyl)amino)-7-(trifluoro-methyl)-4,5-dihydro-3H-2,4,11,12a-tetraazabenzo [4,5]cycloocta[1,2,3-cd]inden-3-one] here?
A: 3.86 nM

Q: `Cc1ccc2c(n1)CS(=O)(=O)c1ncn3c(NCc4c(F)ccc5c4CCO5)ncc-2c13` [Compound 95, 11-(((5-fluoro-2,3-dihydrobenzofuran-4-yl)methyl)amino)-6-methyl-4H-3-thia-2,5,10,11a-tetraazadibenzo[cd,f]azulene 3,3-dioxide] was tested. Which IC50 did it give?
A: 13.1 nM

Q: Which IC50 does the source give for `O=C1c2ncn3c(NCc4c(F)ccc5c4CCO5)ncc(c23)-c2ccc(C(F)(F)F)nc2CN1CC1COCCO1` (stereo not drawn) [Compound 35, 4-((1,4-dioxan-2-yl)methyl)-12-(((5-fluoro-2,3-dihydrobenzofuran-4-yl)methyl)amino)-7-(trifluoro-methyl)-4,5-dihydro-3H-2,4,6,11,12a-pentaazabenzo [4,5]cycloocta[1,2,3-cd]inden-3-one] here?
A: 1.16 nM

Q: How did the IC50 turn out when `O=S1(=O)CCc2cc(F)ccc2-c2cnc(NCc3c(F)ccc4c3CCO4)n3cnc1c23` [Compound 96, 7-fluoro-12-(((5-fluoro-2,3-dihydrobenzofuran-4-yl)methyl)amino)-4,5-dihydro-3-thia-2,11,12a-triazabenzo[4,5]cycloocta[1,2,3-cd]indene 3,3-dioxide] was run?
A: 21.9 nM

Q: For `O=C1NCc2nc(C(F)(F)F)ccc2-c2cnc(NCc3c(F)ccc4c3CCO4)n3cnc1c23` [Compound 25, 12-(((5-fluoro-2,3-dihydrobenzofuran-4-yl)methyl)amino)-7-(trifluoromethyl)-4,5-dihydro-3H-2,4,6, 11,12a-pentaazabenzo[4,5]cycloocta[1,2,3-cd] inden-3-one], which IC50 is on record?
A: 3.31 nM

Q: With `O=C1c2ncn3c(NCc4c(F)ccc5c4CCO5)ncc(c23)-c2ccc(C(F)(F)F)cc2CN1CC(F)F` [Compound 81, 4-(2,2-difluoroethyl)-12-(((5-fluoro-2,3-dihydro-benzofuran-4-yl)methyl)amino)-7-(trifluoromethyl)-4,5-dihydro-3H-2,4,11,12a-tetraazabenzo[4,5] cycloocta[1,2,3-cd]inden-3-one] as the molecule, how does the IC50 read?
A: 1.7 nM

Q: For `CC(F)(F)CN1Cc2cc(C(F)(F)F)ncc2-c2cnc(NCc3c(F)ccc4c3CCO4)n3cnc(c23)C1=O` [Compound 82, 4-(2,2-difluoropropyl)-12-(((5-fluoro-2,3-dihydrobenzofuran-4-yl)methyl)amino)-7-(trifluoromethyl)-4,5-dihydro-3H-2,4,8,11,12a-pentaazabenzo[4,5] cycloocta[1,2,3-cd]inden-3-one], which IC50 is on record?
A: 10.5 nM

Q: With `O=C1c2ncn3c(NCc4c(F)ccc5c4CCO5)ncc(c23)-c2cnc(C(F)(F)F)cc2CN1CCF` [Compound 72, 12-(((5-fluoro-2,3-dihydrobenzofuran-4-yl)methyl)amino)-4-(2-fluoroethyl)-7-(trifluoromethyl)-4,5-dihydro-3H-2,4,8,11,12a-pentaazabenzo[4,5] cycloocta[1,2,3-cd]inden-3-one] as the molecule, how does the IC50 read?
A: 2.69 nM

Q: Which IC50 does the source give for `O=C1OCc2ccccc2-c2cnc(NCc3c(F)ccc4c3CCO4)n3cnc1c23` [Compound 6, 12-(((5-fluoro-2,3-dihydrobenzofuran-4-yl)methyl)amino)-3H,5H-4-oxa-2,11,12a-triazabenzo[4,5] cycloocta[1,2,3-cd]inden-3-one] here?
A: 0.19 nM

Q: With `O=C1c2ncn3c(NCc4c(F)ccc5c4CCO5)ncc(c23)-c2ccc(C(F)(F)F)nc2CN1C1CC1` [Compound 41, 4-cyclopropyl-12-(((5-fluoro-2,3-dihydrobenzofuran-4-yl)methyl)amino)-7-(trifluoromethyl)-4,5-dihydro-3H-2,4,6,11,12a-pentaazabenzo[4,5] cycloocta[1,2,3-cd]inden-3-one] as the molecule, how does the IC50 read?
A: 0.6 nM

Q: With `O=C1c2ncn3c(NCc4c(F)ccc5c4CCO5)ncc(c23)-c2cnc(C(F)(F)F)cc2CN1C1CC1` [Compound 36, 4-cyclopropyl-12-(((5-fluoro-2,3-dihydrobenzofuran-4-yl)methyl)amino)-7-(trifluoromethyl)-4,5-dihydro-3H-2,4,8,11,12a-pentaazabenzo[4,5]cycloocta[1,2,3-cd]inden-3-one] as the molecule, how does the IC50 read?
A: 1.44 nM
